Results from patent US9181230B2, “Morpholine compounds and uses thereof” (Hoffmann-La Roche Inc., priority 2013, dated 2015).
Structures can show the parent of a compound that is named as a salt.

What was measured:
mouse TAAR1 = mouse TAAR1 (Mus musculus (Mouse), UniProt Q923Y8); test: Radioligand binding assay on mouse TAAR1; details: mouse TAAR1, membranes of HEK-293 cells, first value of the cell pair mouse/rat
Description: (§1) For the construction of expression plasmids the coding sequences of human, rat and mouse TAAR 1 were amplified from genomic DNA essentially as described by Lindemann et al.. The Expand High Fidelity PCR System (Roche Diagnostics) was used with 1.5 mM Mg^2+ and purified PCR products were cloned into pCR2.1-TOPO cloning vector (Invitrogen) following the instructions of the manufacturer. PCR products were subcloned into the pIRESneo2 vector (BD Clontech, Palo Alto, Calif.), and expression vectors were sequence verified before introduction in cell lines.
(§2) HEK293 cells (ATCC # CRL-1573) were cultured essentially as described by Lindemann et al. (2005). For the generation of stably transfected cell lines HEK293 cells were transfected with the pIRESneo2 expression plasmids containing the TAAR coding sequences (described above) with Lipofectamine 2000 (Invitrogen) according to the instructions of the manufacturer, and 24 hrs post transfection the culture medium was supplemented with 1 mg/ml G418 (Sigma, Buchs, Switzerland). After a culture period of about 10 d clones were isolated, expanded and tested for responsiveness to trace amines (all compounds purchased from Sigma) with the cAMP Biotrak Enzyme immunoassay (EIA) System (Amersham) following the non-acetylation EIA procedure provided by the manufacturer.
(A) Radioligand Binding Assay on Mouse TAAR1
(§3) Membrane Preparation and Radioligand Binding.
(§4) HEK-293 cells stably expressing mouse TAAR1 were maintained at 37° C. and 5% CO2 in DMEM high glucose medium, containing fetal calf serum (10%, heat inactivated for 30 min at 56° C.), penicillin/streptomycin (1%), and 375 μg/ml geneticin (Gibco). Cells were released from culture flasks using trypsin/EDTA, harvested, washed twice with ice-cold PBS (without Ca^2+ and Mg^2+), pelleted at 1,000 rpm for 5 min at 4° C., frozen and stored at −80° C. Frozen pellets were suspended in 20 ml HEPES-NaOH (20 mM, pH 7.4) containing 10 mM EDTA and homogenized with a Polytron (PT 6000, Kinematica) at 14,000 rpm for 20 s. The homogenate was centrifuged at 48,000×g for 30 min at 4° C. Subsequently, the supernatant was removed and discarded, and the pellet resuspended in 20 ml HEPES-NaOH (20 mM, pH 7.4) containing 0.1 mM EDTA using the Polytron (20 s at 14,000 rpm). This procedure was repeated and the final pellet resuspended in HEPES-NaOH containing 0.1 mM EDTA and homogenized using the Polytron. Typically, aliquots of 2 ml membrane portions were stored at −80° C. With each new membrane batch the dissociation constant (Kd) was determined via a saturation curve. […] Nonspecific binding was defined as the amount of ^3[H]-(S)-4-[(ethyl-phenyl-amino)-methyl]-4,5-dihydro-oxazol-2-ylamine bound in the presence of 10 μM unlabeled ligand. All compounds were tested at a broad range of concentrations (10 pM to 10 μM) in duplicates. […] The 96 deep well plates were incubated for 1 hr at 4° C. Incubations were terminated by rapid filtration through Unifilter-96 plates (Packard Instrument Company) and glass filters GF/C (Perkin Elmer) presoaked for 1 hr in polyethylenimine (0.3%) and washed 3 times with 1 ml of cold binding buffer. After addition of 45 μl of Microscint 40 (PerkinElmer) the Unifilter-96 plate was sealed and after 1 hr the ratioactivity counted using a TopCount Microplate Scintillation Counter (Packard Instrument Company).

rat TAAR1 = rat TAAR1 (Rattus norvegicus (Rat), UniProt Q923Y9); test: Radioligand binding assay on rat TAAR1; details: rat TAAR1, membranes of HEK-293 cells, second value of the cell pair mouse/rat
Sequence of rat TAAR1 (Q923Y9 whole entry): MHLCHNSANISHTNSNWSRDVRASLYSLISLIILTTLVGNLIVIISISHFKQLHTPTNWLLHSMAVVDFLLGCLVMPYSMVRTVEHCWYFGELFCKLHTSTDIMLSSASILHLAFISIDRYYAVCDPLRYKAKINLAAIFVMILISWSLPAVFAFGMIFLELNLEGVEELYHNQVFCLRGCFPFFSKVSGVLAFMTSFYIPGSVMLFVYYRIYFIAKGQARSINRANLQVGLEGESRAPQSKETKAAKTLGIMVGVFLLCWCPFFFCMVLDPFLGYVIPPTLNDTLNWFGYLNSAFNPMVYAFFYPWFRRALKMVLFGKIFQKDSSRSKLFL
Description: as §1, §2
(B) Radioligand Binding Assay on Rat TAAR1
as §3
as §4, with “rat” for “mouse”

Sequence of mouse TAAR1 (Q923Y8 whole entry): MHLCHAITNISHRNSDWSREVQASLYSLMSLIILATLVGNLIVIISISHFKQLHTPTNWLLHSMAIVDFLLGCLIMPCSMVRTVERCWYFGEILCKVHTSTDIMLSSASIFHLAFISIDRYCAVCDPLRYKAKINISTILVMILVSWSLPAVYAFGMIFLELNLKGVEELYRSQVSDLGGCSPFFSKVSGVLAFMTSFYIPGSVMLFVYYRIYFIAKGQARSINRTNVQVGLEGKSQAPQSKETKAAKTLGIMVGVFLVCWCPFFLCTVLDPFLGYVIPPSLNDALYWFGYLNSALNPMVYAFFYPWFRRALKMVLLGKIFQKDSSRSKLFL

Compound | Ki (mouse TAAR1) | Ki (rat TAAR1)
c1ccc2[nH]c(-c3ccc(C4CNCCO4)cc3)nc2c1 (stereo not drawn) [Example 1, 2-(4-(1H-Benzo[d]imidazol-2-yl)phenyl)morpholine hydrochloride] | 0.038 µM | 0.76 µM
Clc1ccc2nc(-c3ccc(C4CNCCO4)cc3)[nH]c2c1 (stereo not drawn) [Example 2, 2-(4-(6-Chloro-1H-benzo[d]imidazol-2-yl)phenyl)morpholine hydrochloride] | 0.0032 µM | 
Clc1ccc(-c2cc(-c3ccc(C4CNCCO4)cc3)n[nH]2)cc1 (stereo not drawn) [Example 3, 2-(4-(5-(4-Chlorophenyl)-1H-pyrazol-3-yl)phenyl)morpholine hydrochloride] | 0.001 µM | 0.0034 µM
Fc1ccc(-c2cc(-c3ccc(C4CNCCO4)cc3)n[nH]2)cc1 (stereo not drawn) [Example 4, 2-(4-(5-(4-Fluorophenyl)-1H-pyrazol-3-yl)phenyl)morpholine hydrochloride] | 0.0012 µM | 0.0059 µM
Clc1ccc(-c2cc(-c3ccc(C4CNCCO4)cc3)n[nH]2)cn1 (stereo not drawn) [Example 5, 2-(4-(5-(6-Chloropyridin-3-yl)-1H-pyrazol-3-yl)phenyl)morpholine hydrochloride] | 0.0044 µM | 0.0631 µM
N#Cc1ccc(-c2cc(-c3ccc(C4CNCCO4)cc3)n[nH]2)cc1 (stereo not drawn) [Example 6, 4-(3-(4-(Morpholin-2-yl)phenyl)-1H-pyrazol-5-yl)benzonitrile hydrochloride] | 0.0019 µM | 0.0335 µM
Brc1cnc2nc(-c3ccc([C@H]4CNCCO4)cc3)[nH]c2c1 [Example 7, (S)-2-(4-(6-bromo-1H-imidazo[4,5-b]pyridin-2-yl)phenyl)morpholine hydrochloride] | 0.0089 µM | 
Clc1cccc(-c2cc(-c3ccc([C@H]4CNCCO4)cc3)n[nH]2)c1 [Example 9, (S)-2-(4-(5-(3-Chlorophenyl)-1H-pyrazol-3-yl)phenyl)morpholine hydrochloride] | 0.0004 µM | 0.0021 µM
Fc1cc(F)c2nc(-c3ccc([C@H]4CNCCO4)cc3)[nH]c2c1 [Example 11, (S)-2-(4-(4,6-Difluoro-1H-benzo[d]imidazol-2-yl)phenyl)morpholine hydrochloride] | 0.009 µM | 
Fc1ccc(-c2cc(-c3ccc([C@H]4CNCCO4)cc3)n[nH]2)c(F)c1 [Example 13, (S)-2-(4-(5-(2,4-Difluorophenyl)-1H-pyrazol-3-yl)phenyl)morpholine hydrochloride] | 0.0003 µM | 
Fc1ccc(-c2cc(-c3ccc([C@@H]4CNCCO4)cc3)n[nH]2)c(F)c1 [Example 14, (R)-2-(4-(5-(2,4-Difluorophenyl)-1H-pyrazol-3-yl)phenyl)morpholine hydrochloride] | 0.0008 µM | 
Cc1cc2nc(-c3ccc([C@H]4CNCCO4)cc3)[nH]c2cc1C [Example 16, (S)-2-(4-(5,6-Dimethyl-1H-benzo[d]imidazol-2-yl)phenyl)morpholine hydrochloride] |  | 1.14 µM
Fc1ccc(-n2cc(-c3ccc([C@H]4CNCCO4)cc3)nn2)cc1 [Example 18, (S)-2-(4-(1-(4-Fluorophenyl)-1H-1,2,3-triazol-4-yl)phenyl)morpholine hydrochloride] | 0.002 µM | 
Fc1ccc(-c2ncn(-c3ccc([C@H]4CNCCO4)cc3)n2)cc1 [Example 25, (S)-2-(4-(3-(4-Fluorophenyl)-1H-1,2,4-triazol-1-yl)phenyl)morpholine hydrochloride] | 0.0034 µM | 
Fc1ccc(-c2cn(-c3ccc([C@H]4CNCCO4)cc3)nn2)cc1 [Example 27, (S)-2-(4-(4-(4-Fluorophenyl)-1H-1,2,3-triazol-1-yl)phenyl)morpholine hydrochloride] | 0.0004 µM | 
O=C(Nc1cc(-c2ccc([C@H]3CNCCO3)cc2)n[nH]1)c1ccc(F)cc1 [Example 30, (S)-4-Fluoro-N-(3-(4-(morpholin-2-yl)phenyl)-1H-pyrazol-5-yl)benzamide hydrochloride] | 0.0022 µM | 
N#Cc1ccc(-c2cc(-c3ccc([C@H]4CNCCO4)cc3)n[nH]2)c(F)c1 [Example 33, (S)-3-Fluoro-4-(3-(4-(morpholin-2-yl)phenyl)-1H-pyrazol-5-yl)benzonitrile hydrochloride] | 0.0016 µM | 
Fc1ccc(-n2cc(-c3ccc([C@@H]4CNCCO4)cc3)nn2)cc1 [Example 35, (R)-2-(4-(1-(4-Fluorophenyl)-1H-1,2,3-triazol-4-yl)phenyl)morpholine hydrochloride] | 0.0017 µM | 
Fc1ccc(-c2ncn(-c3ccc([C@@H]4CNCCO4)cc3)n2)cc1 [Example 36, (R)-2-(4-(3-(4-Fluorophenyl)-1H-1,2,4-triazol-1-yl)phenyl)morpholine hydrochloride] | 0.0097 µM | 
Fc1ccc(-c2cn(-c3ccc([C@@H]4CNCCO4)cc3)nn2)cc1 [Example 39, (R)-2-(4-(4-(4-Fluorophenyl)-1H-1,2,3-triazol-1-yl)phenyl)morpholine hydrochloride] | 0.001 µM | 
Clc1cc(-c2cc(-c3ccc([C@H]4CNCCO4)cc3)n[nH]2)ccn1 [Example 42, (S)-2-(4-(5-(2-Chloropyridin-4-yl)-1H-pyrazol-3-yl)phenyl)morpholine hydrochloride] | 0.0016 µM | 
Fc1ccc(-c2nc3cc([C@H]4CNCCO4)ccc3[nH]2)cc1 [Example 43, (S)-2-(2-(4-Fluorophenyl)-1H-benzo[d]imidazol-5-yl)morpholine hydrochloride] | 0.0014 µM | 
Fc1ccc(-c2nc3cc([C@@H]4CNCCO4)ccc3[nH]2)cc1 [Example 44, (R)-2-(2-(4-Fluorophenyl)-1H-benzo[d]imidazol-5-yl)morpholine hydrochloride] | 0.004 µM | 
c1cnc2[nH]c3ccc([C@H]4CNCCO4)cc3c2c1 [Example 45, (S)-2-(9H-Pyrido[2,3-b]indol-6-yl)morpholine hydrochloride] |  | 1 µM
FC(F)(F)c1ccc2c(n1)[nH]c1ccc([C@H]3CNCCO3)cc12 [Example 49, (S)-2-(2-(Trifluoromethyl)-9H-pyrido[2,3-b]indol-6-yl)morpholine hydrochloride] | 0.0032 µM | 
FC(F)(F)c1cc(-c2nc3ccc([C@@H]4CNCCO4)cc3o2)ccn1 [Example 54, (R)-6-(Morpholin-2-yl)-2-(2-(trifluoromethyl)pyridin-4-yl)benzo[d]oxazole hydrochloride] |  | 0.448 µM
FC(F)(F)c1cc(-c2nc3ccc([C@H]4CNCCO4)cc3o2)ccn1 [Example 55, (S)-6-(Morpholin-2-yl)-2-(2-(trifluoromethyl)pyridin-4-yl)benzo[d]oxazole hydrochloride] |  | 0.304 µM
